Results reported in PMC10938434, “Design, Synthesis, and Biological Effect Studies of Novel Benzofuran–Thiazolylhydrazone Derivatives as Monoamine Oxidase Inhibitors” (ACS Omega, 2024).
Where “and” joins values, the source holds several entries; their conditions need not be identical. Identical values can stand only once.

What was measured:
MAO-B enzyme = biological target: T1, MAO-B enzyme (Homo sapiens, UniProt P27338); experiment: MAO-B enzyme inhibition, fluorometric method; assay type: biochemical; details: for inhibition at 1000 µM: 10^–3 M; for inhibition at 100 µM: read-out: MAO-B % inhibition 10^–4 M, 10^–4 M
T1 sequence (P27338 1-520): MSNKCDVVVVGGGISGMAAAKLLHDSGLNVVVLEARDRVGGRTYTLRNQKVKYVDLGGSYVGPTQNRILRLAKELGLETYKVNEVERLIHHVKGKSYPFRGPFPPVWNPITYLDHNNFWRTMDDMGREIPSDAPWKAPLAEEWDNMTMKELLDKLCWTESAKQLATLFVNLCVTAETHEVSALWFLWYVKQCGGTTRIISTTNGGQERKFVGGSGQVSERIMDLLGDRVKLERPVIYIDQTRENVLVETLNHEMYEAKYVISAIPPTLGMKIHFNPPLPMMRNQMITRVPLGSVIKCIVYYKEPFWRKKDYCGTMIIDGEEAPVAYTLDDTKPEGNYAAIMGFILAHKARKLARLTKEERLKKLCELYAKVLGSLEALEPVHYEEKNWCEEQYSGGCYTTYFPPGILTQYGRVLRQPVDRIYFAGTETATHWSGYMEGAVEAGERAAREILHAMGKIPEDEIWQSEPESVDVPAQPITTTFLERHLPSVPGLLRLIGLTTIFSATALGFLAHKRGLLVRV
From the text: (§1) Inhibition profiles of the synthesized compounds on MAO enzymes were investigated by the fluorometric method.
(§2) In every step of the method, distilled water obtained from a Millipor, a Milli-Q Synthesis A10 purification device, was used. Care was taken in preparing all of the solutions used fresh and to consume them within 1 week after preparation. A BioTek-Precision Power robotic pipetting system was used in the processes of separating the solutions prepared in the enzyme inhibition study, applying the test compounds to 96-well plates, and adding the enzyme–substrate solutions. The creation, monitoring, and spectrophotometric measurements of the enzyme protocol were performed on a BioTek-Synergy H1 microplate reader.[41],[42]

MAO-A enzyme = biological target: T2, MAO-A enzyme (Homo sapiens, UniProt P21397); experiment: MAO-A enzyme inhibition, fluorometric method; assay type: biochemical; details: for IC50: 10^–3–10^–9 M concentrations; for selectivity: MAO isoform preferentially inhibited; for SI* selectivity index: SI = IC50MAO-B/IC50 MAO-A; for inhibition at 1000 µM: read-out: MAO-A % inhibition 10^–3 M; for inhibition at 100 µM: read-out: MAO-A % inhibition 10^–4 M
T2 sequence (P21397 1-527): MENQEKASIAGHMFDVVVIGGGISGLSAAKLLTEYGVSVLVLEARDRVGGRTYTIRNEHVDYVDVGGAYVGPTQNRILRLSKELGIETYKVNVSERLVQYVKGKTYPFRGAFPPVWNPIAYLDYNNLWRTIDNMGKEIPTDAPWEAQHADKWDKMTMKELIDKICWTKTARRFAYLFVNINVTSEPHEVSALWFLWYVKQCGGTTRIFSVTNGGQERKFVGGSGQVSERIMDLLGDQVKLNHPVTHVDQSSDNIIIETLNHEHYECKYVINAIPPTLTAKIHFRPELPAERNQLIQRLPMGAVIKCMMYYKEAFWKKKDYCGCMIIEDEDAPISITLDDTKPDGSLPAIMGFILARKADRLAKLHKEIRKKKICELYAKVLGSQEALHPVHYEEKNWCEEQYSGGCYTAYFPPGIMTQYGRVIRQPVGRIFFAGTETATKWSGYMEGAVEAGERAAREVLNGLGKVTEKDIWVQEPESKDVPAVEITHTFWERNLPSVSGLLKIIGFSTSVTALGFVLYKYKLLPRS
From the text: as §1
as §2, with “solutions.” for “solutions. The creation, monitoring, and spectrophotometric measurements of the enzyme protocol were performed on a BioTek-Synergy H1 microplate reader.[41],[42]”

[1] = In vitro BBB permeability assay (PAMPA); assay type: in vitro ADME
[2] = tested on: NIH3T3 (healthy mouse fibroblast cells); experiment: Cytotoxicity test (MTT); assay type: cell-based
Method: (§3) Just as important as the effectiveness of a compound is its side effect profile. For this purpose, cytotoxic effect tests of compound 2l were carried out. NIH3T3 (healthy mouse fibroblast cells) was used as the healthy cell in the experimental procedure.
(§4) 3-(4,5-Dimethylthiazol-2-yl)-2,5-diphenyl tetrazolium bromide (MTT) stock solution (5 mg mL^–1) was prepared by dissolving in phosphate buffer (PBS). The viable cell count of NIH/3T3 (mouse healthy embryo fibroblast cells) cells grown in appropriate medium and culture medium was characterized, and each cell line was seeded in 96-well plates with 3000 cells in each well, and the cells were incubated for 24 h for their adhesion. […] At the end of the incubation, the medium in each well was removed and 100 μL of DMSO was added as a solvent and the absorbance values were read in an enzyme-linked immunosorbent assay (ELISA) device (Bio Tek Cytation3 multimode microplate reader) at a wavelength of 540 nm, with eight wells in each group. […] The obtained absorbance values give the metabolic activities of the cells, and these values are associated with the number of living cells. The results are determined as % inhibition values according to the formula given, and IC50 values are calculated from these values by using the Excel program.[52]−[54]

Cytotoxicity test (MTT) = assay type: cell-based, mouse; details: mouse, NIH3T3 mouse embryo fibroblast cells, 24 h
Method: as §3, §4

SMILES: C(=NNc1nc(-c2ccccc2)cs1)c1cc2ccccc2o1 [2a, 2-(2-(Benzofuran-2-ylmethylene)hydrazinyl)-4-phenylthiazole]
- IC50 (MAO-B enzyme): 0.8 ± 0.03 µM
- inhibition at 1000 µM (MAO-B enzyme): 85.2 ± 1.01%
- inhibition at 100 µM (MAO-B enzyme): > 50%
- IC50 (MAO-A enzyme): 0.08 ± 0.01 µM
- selectivity (MAO-A enzyme): MAO-A
- SI* selectivity index (MAO-A enzyme): >9.91
- inhibition at 1000 µM (MAO-A enzyme): 90.4 ± 1.66%
- inhibition at 100 µM (MAO-A enzyme): 83.7 ± 1.09%

SMILES: Cc1ccc(-c2csc(NN=Cc3cc4ccccc4o3)n2)cc1 [2b, 2-(2-(Benzofuran-2-ylmethylene)hydrazinyl)-4-(p-tolyl)thiazole]
- IC50 (MAO-B enzyme): > 100 µM
- inhibition at 1000 µM (MAO-B enzyme): 64.5 ± 1.12%
- inhibition at 100 µM (MAO-B enzyme): 47.1 ± 0.85%
- IC50 (MAO-A enzyme): 0.21 ± 0.01 µM
- selectivity (MAO-A enzyme): MAO-A
- SI* selectivity index (MAO-A enzyme): >458.72
- inhibition at 1000 µM (MAO-A enzyme): 87 ± 1.92%
- inhibition at 100 µM (MAO-A enzyme): 78.2 ± 1.44%

SMILES: COc1ccc(-c2csc(NN=Cc3cc4ccccc4o3)n2)cc1 [2c, 2-(2-(Benzofuran-2-ylmethylene)hydrazinyl)-4-(4-methoxyphenyl)thiazole]
- IC50 (MAO-B enzyme): > 100 µM
- inhibition at 1000 µM (MAO-B enzyme): 55.8 ± 0.96%
- inhibition at 100 µM (MAO-B enzyme): 42.8 ± 0.89%
- IC50 (MAO-A enzyme): 0.18 ± 0.01 µM
- selectivity (MAO-A enzyme): MAO-A
- SI* selectivity index (MAO-A enzyme): >568.18
- inhibition at 1000 µM (MAO-A enzyme): 85.2 ± 2.03%
- inhibition at 100 µM (MAO-A enzyme): 72.8 ± 1.36%

SMILES: N#Cc1ccc(-c2csc(NN=Cc3cc4ccccc4o3)n2)cc1 [2d, 4-(2-(2-(Benzofuran-2-ylmethylene)hydrazinyl)thiazol-4-yl)benzonitrile]
- IC50 (MAO-B enzyme): > 100 µM
- inhibition at 1000 µM (MAO-B enzyme): 69 ± 1.05%
- inhibition at 100 µM (MAO-B enzyme): 40.7 ± 0.98%
- IC50 (MAO-A enzyme): 0.31 ± 0.01 µM
- selectivity (MAO-A enzyme): MAO-A
- SI* selectivity index (MAO-A enzyme): >326.79
- inhibition at 1000 µM (MAO-A enzyme): 80.8 ± 1.69%
- inhibition at 100 µM (MAO-A enzyme): 71 ± 1.18%

SMILES: O=[N+]([O-])c1ccc(-c2csc(NN=Cc3cc4ccccc4o3)n2)cc1 [2e, 2-(2-(Benzofuran-2-ylmethylene)hydrazinyl)-4-(4-nitrophenyl)thiazole]
- IC50 (MAO-B enzyme): > 100 µM
- inhibition at 1000 µM (MAO-B enzyme): 72.1 ± 1.4%
- inhibition at 100 µM (MAO-B enzyme): 48.3 ± 0.86%
- IC50 (MAO-A enzyme): 0.26 ± 0.01 µM
- selectivity (MAO-A enzyme): MAO-A
- SI* selectivity index (MAO-A enzyme): >386.10
- inhibition at 1000 µM (MAO-A enzyme): 83.2 ± 1.65%
- inhibition at 100 µM (MAO-A enzyme): 69.3 ± 0.9%

SMILES: Fc1ccc(-c2csc(NN=Cc3cc4ccccc4o3)n2)cc1 [2f, 2-(2-(Benzofuran-2-ylmethylene)hydrazinyl)-4-(4-fluorophenyl)thiazole]
- IC50 (MAO-B enzyme): 1.37 ± 0.06 µM
- inhibition at 1000 µM (MAO-B enzyme): 82.7 ± 1.66%
- inhibition at 100 µM (MAO-B enzyme): > 50%
- IC50 (MAO-A enzyme): 0.34 ± 0.01 µM
- selectivity (MAO-A enzyme): MAO-A
- SI* selectivity index (MAO-A enzyme): >4.06
- inhibition at 1000 µM (MAO-A enzyme): 85.7 ± 1.48%
- inhibition at 100 µM (MAO-A enzyme): 73.6 ± 1.16%

SMILES: Clc1ccc(-c2csc(NN=Cc3cc4ccccc4o3)n2)cc1 [2g, 2-(2-(Benzofuran-2-ylmethylene)hydrazinyl)-4-(4-chlorophenyl)thiazole]
- IC50 (MAO-B enzyme): > 100 µM
- inhibition at 1000 µM (MAO-B enzyme): 68.4 ± 0.97%
- inhibition at 100 µM (MAO-B enzyme): 45.2 ± 0.86%
- IC50 (MAO-A enzyme): 0.09 ± 0.01 µM
- selectivity (MAO-A enzyme): MAO-A
- SI* selectivity index (MAO-A enzyme): >1075.27
- inhibition at 1000 µM (MAO-A enzyme): 79.5 ± 1.06%
- inhibition at 100 µM (MAO-A enzyme): 68.7 ± 0.94%

SMILES: Brc1ccc(-c2csc(NN=Cc3cc4ccccc4o3)n2)cc1 [2h, 2-(2-(Benzofuran-2-ylmethylene)hydrazinyl)-4-(4-bromophenyl)thiazole]
- IC50 (MAO-B enzyme): 1.06 ± 0.05 µM
- inhibition at 1000 µM (MAO-B enzyme): 70.2 ± 1.36%
- inhibition at 100 µM (MAO-B enzyme): > 50%
- IC50 (MAO-A enzyme): 0.42 ± 0.02 µM
- selectivity (MAO-A enzyme): MAO-A
- SI* selectivity index (MAO-A enzyme): >2.53
- inhibition at 1000 µM (MAO-A enzyme): 86.8 ± 1.6%
- inhibition at 100 µM (MAO-A enzyme): 78.5 ± 1.09%

SMILES: Cc1ccc(-c2csc(NN=Cc3cc4ccccc4o3)n2)c(C)c1 [2i, 2-(2-(Benzofuran-2-ylmethylene)hydrazinyl)-4-(2,4-dimethylphenyl)thiazole]
- IC50 (MAO-B enzyme): 1.69 ± 0.08 µM
- inhibition at 1000 µM (MAO-B enzyme): 73.5 ± 1.49%
- inhibition at 100 µM (MAO-B enzyme): > 50%
- IC50 (MAO-A enzyme): 0.43 ± 0.02 µM
- selectivity (MAO-A enzyme): MAO-A
- SI* selectivity index (MAO-A enzyme): >3.93
- inhibition at 1000 µM (MAO-A enzyme): 84.2 ± 1.35%
- inhibition at 100 µM (MAO-A enzyme): 71.3 ± 1.86%

SMILES: COc1ccc(-c2csc(NN=Cc3cc4ccccc4o3)n2)c(OC)c1 [2j, 2-(2-(Benzofuran-2-ylmethylene)hydrazinyl)-4-(2,4-dimethoxyphenyl)thiazole]
- IC50 (MAO-B enzyme): > 100 µM
- inhibition at 1000 µM (MAO-B enzyme): 67.9 ± 1.3%
- inhibition at 100 µM (MAO-B enzyme): 41.5 ± 0.75%
- IC50 (MAO-A enzyme): 0.14 ± 0.01 µM
- selectivity (MAO-A enzyme): MAO-A
- SI* selectivity index (MAO-A enzyme): >719.42
- inhibition at 1000 µM (MAO-A enzyme): 87.5 ± 1.8%
- inhibition at 100 µM (MAO-A enzyme): 68.4 ± 1.15%

SMILES: Fc1ccc(-c2csc(NN=Cc3cc4ccccc4o3)n2)c(F)c1 [2k, 2-(2-(Benzofuran-2-ylmethylene)hydrazinyl)-4-(2,4-difluorophenyl)thiazole]
- IC50 (MAO-B enzyme): > 100 µM
- inhibition at 1000 µM (MAO-B enzyme): 74.5 ± 1.4%
- inhibition at 100 µM (MAO-B enzyme): 40.7 ± 0.95%
- IC50 (MAO-A enzyme): 0.13 ± 0.01 µM
- selectivity (MAO-A enzyme): MAO-A
- SI* selectivity index (MAO-A enzyme): >787.40
- inhibition at 1000 µM (MAO-A enzyme): 89.9 ± 1.76%
- inhibition at 100 µM (MAO-A enzyme): 73.7 ± 0.83%

SMILES: Clc1ccc(-c2csc(NN=Cc3cc4ccccc4o3)n2)c(Cl)c1 [2l, 2-(2-(Benzofuran-2-ylmethylene)hydrazinyl)-4-(2,4-dichlorophenyl)thiazole]
- BBB permeability (in words) [1]: high BBB permeability
- cytotoxic effect result [2]: nontoxic
- IC50 at 24 h (Cytotoxicity test (MTT)): > 100 µM
- IC50 (MAO-B enzyme): 0.75 ± 0.03 µM
- inhibition at 1000 µM (MAO-B enzyme): 86.6 ± 1.29%
- IC50 (MAO-A enzyme): 0.073 µM and 0.07 µM
- selectivity (MAO-A enzyme): MAO-A
- SI* selectivity index (MAO-A enzyme): >10.30
- inhibition at 1000 µM (MAO-A enzyme): 94 ± 1.65%
- inhibition at 100 µM (MAO-A enzyme): 91.4 ± 1.36%

SMILES: O=C(NCCN1CCOCC1)c1ccc(Cl)cc1 [Moclobemid, moclobemide, reference compound]
- inhibition at 1000 µM (MAO-A enzyme): 94.1 ± 2.76%
- inhibition at 100 µM (MAO-A enzyme): 82.1 ± 2.69%
